What was measured:
[1] = test system: MCF-7 cells; experiment: Cell viability; format: cell-based; settings: for IC50: Homo sapiens, MCF7, 72 h, read-out: Anti-proliferative activity IC50, MCF-7; for Antiproliferative activity against MCF-7, in words: MCF-7 cells
[2] = test system: A549 cells; experiment: Cell viability; format: cell-based; settings: for Antiproliferative activity against A549, in words: A549 cells; for IC50: Homo sapiens, A549, 72 h, read-out: Anti-proliferative activity IC50, A549
[3] = test system: TNF-α, IL-1α, IL-1β mRNA expression; experiment: Quantitative RT-PCR of NTHi-induced cytokine mRNA in BEAS-2B cells; format: cell-based, human; settings: 1 µM, 2 h pretreatment, 1.5 h NTHi, relative to SAHA
[4] = test system: NF-κB; experiment: NF-κB luciferase assay in NTHi-stimulated BEAS-2B cells; format: cell-based, human

Row | Structure (SMILES) | IC50 [1] [µM] | Antiproliferative activity against MCF-7, in words [1] | Antiproliferative activity against A549, in words [2] | IC50 [2] [µM] | Suppression of NTHi-induced TNF-α, IL-1α, IL-1β mRNA expression [3] | Effect on NF-κB activation, in words ([4]; NTHi infected BEAS-2B cells, 1 µM pre-screen) | NF-κB inhibition IC50 ([4]; NTHi-stimulated BEAS-2B cells, luciferase)
1 | CC[C@@H]1OC(=O)[C@@H](C)[C@H](O[C@H]2C[C@@](C)(OC)[C@@H](O)[C@H](C)O2)[C@@H](C)[C@H](O[C@H]2O[C@@H](C)C[C@@H](N(C)C)[C@@H]2O)[C@](C)(O)C[C@H](C)CN(Cc2ccc(-c3cn(CCCCC(=O)NO)nn3)cc2)[C@H](C)[C@H](O)[C@@]1(C)O [Compound 8d, (Azithromycin-(N10-(4-triazolylbenzyl)))-N-hydroxypentanamide] | > 20 | devoid of antiproliferative activities | devoid of antiproliferative activities | > 20 | – | – | –
2 | CC[C@@H]1OC(=O)[C@@H](C)[C@H](O[C@H]2C[C@@](C)(OC)[C@@H](O)[C@H](C)O2)[C@@H](C)[C@H](O[C@H]2O[C@@H](C)C[C@@H](N(C)C)[C@@H]2O)[C@](C)(O)C[C@H](C)CN(Cc2ccc(-c3cn(CCCCCCC(=O)NO)nn3)cc2)[C@H](C)[C@H](O)[C@@]1(C)O [Compound 8f, (Azithromycin-(N10-(4-triazolylbenzyl)))-N-hydroxyheptanamide] | – | – | – | – | more significantly suppressed | – | –
3 | CC[C@@H]1OC(=O)[C@H](C)[C@@H](O[C@@H]2C[C@](C)(OC)[C@H](O)[C@@H](C)O2)[C@@H](C)[C@@H](O[C@@H]2O[C@H](C)C[C@H](N(C)Cc3ccccc3-c3cn(CCCCCCC(=O)NO)nn3)[C@H]2O)[C@](C)(O)C[C@@H](C)CN(C)[C@H](C)[C@@H](O)[C@]1(C)O [Compound 15b, (Azithromycin-3′-(N-(2-triazolylbenzyl)))-N-hydroxyheptanamide] | > 20 | devoid of antiproliferative activities | devoid of antiproliferative activities | > 20 | – | – | –
4 | CC[C@@H]1OC(=O)[C@H](C)[C@@H](O[C@@H]2C[C@](C)(OC)[C@H](O)[C@@H](C)O2)[C@@H](C)[C@@H](O[C@@H]2O[C@H](C)C[C@H](N(C)Cc3cccc(-c4cn(CCCCCCC(=O)NO)nn4)c3)[C@H]2O)[C@](C)(O)C[C@@H](C)CN(C)[C@H](C)[C@@H](O)[C@]1(C)O [Compound 16b, (Azithromycin-3′-(N-(3-triazolylbenzyl)))-N-hydroxyheptanamide] | – | potently inhibited | potently inhibited | – | – | – | –
5 | CC[C@H]1OC(=O)[C@@H](C)[C@H](O[C@H]2C[C@@](C)(OC)[C@@H](O)[C@H](C)O2)[C@H](C)[C@H](O[C@H]2O[C@@H](C)C[C@@H](N(C)Cc3ccc(-c4cn(CCCC(=O)NO)nn4)cc3)[C@@H]2O)[C@@](C)(O)C[C@H](C)CN(C)[C@@H](C)[C@H](O)[C@@]1(C)O [Compound 17c] | > 20 | devoid of antiproliferative activities | devoid of antiproliferative activities | > 20 | – | – | –
6 | CC[C@H]1OC(=O)[C@H](C)C(=O)[C@H](C)[C@@H](O[C@@H]2O[C@H](C)C[C@H](N(C)Cc3ccccc3-c3cn(CCCCCCC(=O)NO)nn3)[C@H]2O)[C@@](C)(OC)C[C@@H](C)C2=NCCN3C(=O)O[C@@]1(C)[C@H]3[C@H]2C [Compound 24b, (Tricyclic Ketolide-3′-(N-(2-triazolylbenzyl)))-N-hydroxyheptanamide] | > 20 | devoid of antiproliferative activities | devoid of antiproliferative activities | > 20 | – | – | –
7 | CC[C@H]1OC(=O)[C@H](C)C(=O)[C@H](C)[C@@H](O[C@@H]2O[C@H](C)C[C@H](N(C)Cc3cccc(-c4cn(CCCCCC(=O)NO)nn4)c3)[C@H]2O)[C@@](C)(OC)C[C@@H](C)C2=NCCN3C(=O)O[C@@]1(C)[C@H]3[C@H]2C [Compound 25a, (Tricyclic Ketolide-3′-(N-(3-triazolylbenzyl)))-N-hydroxyhexanamide] | > 20 | non-cytotoxic | non-cytotoxic | > 20 | – | suppressing NF-κB activation | no dose-dependent effect
8 | CC[C@H]1OC(=O)[C@H](C)C(=O)[C@H](C)[C@@H](O[C@@H]2O[C@H](C)C[C@H](N(C)Cc3ccc(-c4cn(CCCCCCC(=O)NO)nn4)cc3)[C@H]2O)[C@@](C)(OC)C[C@@H](C)C2=NCCN3C(=O)O[C@@]1(C)[C@H]3[C@H]2C [Compound 26f] | – | – | – | – | more significantly suppressed | – | –
9 | CC[C@@H]1OC(=O)[C@@H](C)[C@H](O[C@H]2C[C@@](C)(OC)[C@](O)(CN(C)Cc3ccc(-c4cn(CCCCCCC(=O)NO)nn4)cc3)[C@H](C)O2)[C@H](C)[C@H](O[C@@H]2O[C@H](C)C[C@H](N(C)C)[C@H]2O)[C@@](C)(OC)C[C@H](C)C(=O)[C@@H](C)[C@@H](O)[C@@]1(C)O [Compound 38f] | – | potently inhibited | potently inhibited | – | more significantly suppressed | – | –
10 | CC[C@H]1OC(=O)[C@@H](C)[C@H](O[C@H]2C[C@@](C)(OC)[C@](O)(CN(C)Cc3ccc(-c4cn(CCCCCCC(=O)NO)nn4)cc3)[C@H](C)O2)[C@H](C)[C@H](O[C@H]2O[C@@H](C)C[C@@H](N(C)C)[C@@H]2O)[C@@](C)(O)C[C@H](C)CN(C)[C@@H](C)[C@H](O)[C@@]1(C)O [Compound 39f, (Azithromycin-4′′-(methylamino)-N(methyl)(4-benzyltriazolyl))-N-hydroxyheptanamide] | > 20 | non-cytotoxic | non-cytotoxic | > 20 | – | – | –
11 | CC[C@@H]1OC(=O)[C@@H](C)[C@H](O[C@@H]2C[C@](C)(OC)[C@@](O)(CN(C)C)[C@@H](C)O2)[C@H](C)[C@H](O[C@@H]2O[C@H](C)C[C@H](N(C)Cc3ccc(-c4cn(CCCCCCC(=O)NO)nn4)cc3)[C@H]2O)[C@@](C)(OC)C[C@H](C)C(=O)[C@@H](C)[C@@H](O)[C@@]1(C)O [Compound 49b, (Clarithromycin-(4′-N-(4-benzyltriazolyl))-4′′-(N,N-dimethylaminomethyl))-N-hydroxyheptanamide] | – | potently inhibited | potently inhibited | – | – | – | –

— paper PMC4685012 (Bioorganic & medicinal chemistry, 2015)
